Values quoted from earlier work in patent US20110223312A1, “TRIGLYCERIDE-ENCAPSULATED PHYTOSTEROL MICROPARTICLES DISPERSED IN BEVERAGES” (priority 2009, published 2011).

Tested on: plasma cholesterol

SMILES: CC[C@H](CC[C@@H](C)[C@H]1CC[C@H]2[C@@H]3CC=C4C[C@@H](O)CC[C@]4(C)[C@H]3CC[C@]12C)C(C)C [beta sitosterol]
- lowering of serum cholesterol (12-18 g per day in divided doses, males with atherosclerosis (Faquhar et al. 1956)): 15-20%

SMILES: CC[C@H](CC[C@@H](C)[C@H]1CC[C@H]2[C@@H]3CC=C4C[C@@H](O)CC[C@]4(C)[C@H]3CC[C@]12C)C(C)C [sitosterol]
- decrease of the plasma cholesterol level (9-18 grams of sitosterol per day, coarse powdered form, two earlier human studies): approximately 15%
